From PubChem BioAssay AID256 (DTP/NCI, 2004)
“And” between values parts separate entries of the source, which are not always exact repeats. Equal entries are not always repeated. Toxic doses and inconclusive results are not listed. How the source made its calls: active means survival T/C of 150% or more; inactive means T/C below 125% in these data.

Test system: CD2F1 mice, L1210 leukemia ip, survival T/C
Experiment: NCI In Vivo Anticancer Drug Screen. Data for tumor model L1210 Leukemia (intraperitoneal) in CD2F1 (CDF1) mice
Details: higher = longer survival
Outline: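 Transplantable tumor in mice; compound-treated vs vehicle-treated groups. Read-out = treated/control ratio of the measured endpoint.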

[1] = endpoint: mean survival time, dose: 100.0 mg/kg/injection, schedule: Q01DX001 (ip), vehicle: saline with Tween-80
[2] = endpoint: mean survival time, dose: 100.0 mg/kg/injection, schedule: Q04DX003 (ip), vehicle: saline with Tween-80
[3] = endpoint: mean survival time, dose: 200.0 mg/kg/injection, schedule: Q04DX003 (ip), vehicle: saline with Tween-80
[4] = endpoint: mean survival time, dose: 400.0 mg/kg/injection, schedule: Q04DX003 (ip), vehicle: saline with Tween-80
[5] = endpoint: mean survival time, dose: 50.0 mg/kg/injection, schedule: Q01DX009 (ip), vehicle: saline with Tween-80
[6] = endpoint: mean survival time, dose: 100.0 mg/kg/injection, schedule: Q01DX009 (ip), vehicle: saline with Tween-80
[7] = endpoint: mean survival time, dose: 12.5 mg/kg/injection, schedule: Q01DX009 (ip), vehicle: water
[8] = endpoint: mean survival time, dose: 25.0 mg/kg/injection, schedule: Q01DX009 (ip), vehicle: water
[9] = endpoint: mean survival time, dose: 50.0 mg/kg/injection, schedule: Q01DX009 (ip), vehicle: water
[10] = endpoint: mean survival time, dose: 200.0 mg/kg/injection, schedule: Q01DX009 (ip), vehicle: saline with Tween-80
[11] = endpoint: mean survival time, dose: 100.0 mg/kg/injection, schedule: Q01DX001 (ip), vehicle: saline
[12] = endpoint: mean survival time, dose: 200.0 mg/kg/injection, schedule: Q01DX001 (ip), vehicle: saline
[13] = endpoint: mean survival time, dose: 400.0 mg/kg/injection, schedule: Q01DX001 (ip), vehicle: saline
[14] = endpoint: mean survival time, dose: 100.0 mg/kg/injection, schedule: Q04DX003 (ip), vehicle: saline
[15] = endpoint: mean survival time, dose: 100.0 mg/kg/injection, schedule: Q01DX009 (ip), vehicle: saline
[16] = endpoint: mean survival time, dose: 200.0 mg/kg/injection, schedule: Q01DX009 (ip), vehicle: saline
[17] = endpoint: mean survival time, dose: 400.0 mg/kg/injection, schedule: Q01DX009 (ip), vehicle: saline
[18] = endpoint: mean survival time, dose: 25.0 mg/kg/injection, schedule: Q01DX009 (ip), vehicle: saline with Tween-80

Measured: T/C

COC(=O)CC1(C(=O)OC)Nc2cc(Cl)c(Cl)cc2S(=O)(=O)N1O (configuration not stated)
inactive: [1] 106 % of control | endpoint: mean survival time, dose: 200.0 mg/kg/injection, schedule: Q01DX001 (ip), vehicle: saline with Tween-80 94 % of control | endpoint: mean survival time, dose: 400.0 mg/kg/injection, schedule: Q01DX001 (ip), vehicle: saline with Tween-80 94 % of control

CCCCCCOc1ccc(C=Nc2ccc(CC)cc2)cc1
inactive: [2] 88 % of control | [3] 91 % of control | [4] 88 % of control

CCOC(=O)c1cc2cc([N+](=O)[O-])ccc2[nH]1
inactive: [2] 92 % of control | [3] 87 % of control | [4] 91 % of control

Clc1cc(Cl)c2nc[nH]c2c1
inactive: [5] 91 % of control | [6] 95 % of control

CC(=O)N(C(C)=O)c1ccc2[nH]c3c(N(C(C)=O)C(C)=O)cccc3c2c1
inactive: endpoint: mean survival time, dose: 100.0 mg/kg/injection, schedule: Q04DX003 (ip), vehicle: Klucel (hydroxypropylcellulose) (HPC) 97 % of control | endpoint: mean survival time, dose: 200.0 mg/kg/injection, schedule: Q04DX003 (ip), vehicle: Klucel (hydroxypropylcellulose) (HPC) 96 % of control | endpoint: mean survival time, dose: 400.0 mg/kg/injection, schedule: Q04DX003 (ip), vehicle: Klucel (hydroxypropylcellulose) (HPC) 97 % of control

COc1ccc(-c2nc(C)cc3cc(OC)c(OC)cc23)cc1OC
inactive: [7] 94 % of control | [8] 94 % of control | [9] 91 % of control | endpoint: mean survival time, dose: 100.0 mg/kg/injection, schedule: Q01DX009 (ip), vehicle: water 89 % of control

OCC(O)C(O)C(OC1OC(CO)C(O)C(O)C1O)C(O)CO (configuration not stated)
inactive: [5] 97 % of control | [6] 109 % of control | [10] 106 % of control

CC(=O)[CH-]C(=O)C(=O)[CH-]C(C)=O.[Cu+2]
inactive: endpoint: mean survival time, dose: 20.0 mg/kg/injection, schedule: Q01DX001 (ip), vehicle: saline with Tween-80 96 % of control | endpoint: mean survival time, dose: 40.0 mg/kg/injection, schedule: Q01DX001 (ip), vehicle: saline with Tween-80 96 % of control | endpoint: mean survival time, dose: 80.0 mg/kg/injection, schedule: Q01DX001 (ip), vehicle: saline with Tween-80 94 % of control

O=C1C=CC(=O)C2CC=CCC12 (configuration not stated)
inactive: endpoint: mean survival time, dose: 10.0 mg/kg/injection, schedule: Q01DX009 (ip), vehicle: saline with Tween-80 103 % of control | endpoint: mean survival time, dose: 12.5 mg/kg/injection, schedule: Q04DX003 (ip), vehicle: saline with Tween-80 101 % of control | endpoint: mean survival time, dose: 20.0 mg/kg/injection, schedule: Q01DX009 (ip), vehicle: saline with Tween-80 107 % of control | endpoint: mean survival time, dose: 25.0 mg/kg/injection, schedule: Q04DX003 (ip), vehicle: saline with Tween-80 104 % of control | endpoint: mean survival time, dose: 40.0 mg/kg/injection, schedule: Q01DX009 (ip), vehicle: saline with Tween-80 98 % of control | endpoint: mean survival time, dose: 50.0 mg/kg/injection, schedule: Q04DX003 (ip), vehicle: saline with Tween-80 98 % of control | [2] 100 % of control | [3] 93 % of control | [4] 100 % of control

O=C(O)C1OC(Sc2ncnc3nc[nH]c23)C(O)C(O)C1O (configuration not stated)
inactive: endpoint: median survival time, dose: 25.0 mg/kg/injection, schedule: Q01DX005 (ip), vehicle: saline 98 % of control | endpoint: median survival time, dose: 50.0 mg/kg/injection, schedule: Q01DX005 (ip), vehicle: saline 108 % of control | endpoint: median survival time, dose: 100.0 mg/kg/injection, schedule: Q01DX005 (ip), vehicle: saline 109 % of control | endpoint: median survival time, dose: 200.0 mg/kg/injection, schedule: Q01DX005 (ip), vehicle: saline 120 % of control and 112 % of control | endpoint: median survival time, dose: 400.0 mg/kg/injection, schedule: Q01DX005 (ip), vehicle: saline 115 % of control

O=NC1CCCCC1Cl (configuration not stated)
inactive: [11] 96 % of control and 98 % of control and 93 % of control | [12] 95 % of control and 102 % of control and 100 % of control | [13] 101 % of control and 105 % of control

C[N+](C)(C)CC1CO1 (configuration not stated)
inactive: [14] 106 % of control | endpoint: mean survival time, dose: 200.0 mg/kg/injection, schedule: Q04DX003 (ip), vehicle: saline 94 % of control

CCCCN(CCCC)CCNc1ccc(C)c2sc3ccccc3c(=O)c12
inactive: endpoint: mean survival time, dose: 50.0 mg/kg/injection, schedule: Q01DX001 (ip), vehicle: saline 91 % of control | [11] 88 % of control | [15] 101 % of control | [14] 91 % of control | [12] 91 % of control | [16] 91 % of control | [13] 88 % of control | [17] 94 % of control | endpoint: mean survival time, dose: 400.0 mg/kg/injection, schedule: Q04DX003 (ip), vehicle: saline 87 % of control

CCN(CC)c1nc(N(CC)CC)nc(N(CC)CC)n1
inactive: [18] 93 % of control | [5] 93 % of control | [6] 95 % of control | [10] 93 % of control

O=c1ccn(C2OC(CO)C(O)C2O)c(=O)[nH]1 (configuration not stated)
inactive: endpoint: mean survival time, dose: 12.5 mg/kg/injection, schedule: Q01DX005 (ip), vehicle: Klucel (hydroxypropylcellulose) (HPC) 103 % of control | endpoint: mean survival time, dose: 25.0 mg/kg/injection, schedule: Q01DX005 (ip), vehicle: Klucel (hydroxypropylcellulose) (HPC) 101 % of control | endpoint: mean survival time, dose: 50.0 mg/kg/injection, schedule: Q01DX005 (ip), vehicle: Klucel (hydroxypropylcellulose) (HPC) 101 % of control | endpoint: mean survival time, dose: 100.0 mg/kg/injection, schedule: Q01DX005 (ip), vehicle: Klucel (hydroxypropylcellulose) (HPC) 110 % of control | endpoint: mean survival time, dose: 200.0 mg/kg/injection, schedule: Q01DX005 (ip), vehicle: Klucel (hydroxypropylcellulose) (HPC) 105 % of control

O=C(Nc1ccn(C2CC(O)C(CO)O2)c(=O)n1)c1ccccc1 (configuration not stated)
inactive: endpoint: median survival time, dose: 12.5 mg/kg/injection, schedule: Q01DX005 (ip), vehicle: saline with Tween-80 100 % of control | endpoint: median survival time, dose: 25.0 mg/kg/injection, schedule: Q01DX005 (ip), vehicle: saline with Tween-80 104 % of control | endpoint: median survival time, dose: 50.0 mg/kg/injection, schedule: Q01DX005 (ip), vehicle: saline with Tween-80 103 % of control | endpoint: median survival time, dose: 100.0 mg/kg/injection, schedule: Q01DX005 (ip), vehicle: saline with Tween-80 98 % of control | endpoint: median survival time, dose: 200.0 mg/kg/injection, schedule: Q01DX005 (ip), vehicle: saline with Tween-80 95 % of control

CC/C(=N\[N+](C)(C)C)c1ccccc1
inactive: endpoint: mean survival time, dose: 18.8 mg/kg/injection, schedule: Q01DX009 (ip), vehicle: saline 96 % of control | endpoint: mean survival time, dose: 37.5 mg/kg/injection, schedule: Q01DX009 (ip), vehicle: saline 91 % of control

CC1CN(C(=N)C#N)C(C)CN1C(=N)C#N (configuration not stated)
inactive: endpoint: mean survival time, dose: 6.25 mg/kg/injection, schedule: Q01DX009 (ip), vehicle: saline with Tween-80 96 % of control | endpoint: mean survival time, dose: 12.5 mg/kg/injection, schedule: Q01DX009 (ip), vehicle: saline with Tween-80 102 % of control | [18] 105 % of control

CCCN1C(=O)C=CC1=O
inactive: [1] 91 % of control

N#Cc1c(NC(=S)NC2OC(COCc3ccccc3)C(OCc3ccccc3)C2OCc2ccccc2)ncn1Cc1ccccc1 (configuration not stated)
inactive: endpoint: mean survival time, dose: 50.0 mg/kg/injection, schedule: Q01DX009 (ip), vehicle: acetone 94 % of control | endpoint: mean survival time, dose: 100.0 mg/kg/injection, schedule: Q01DX009 (ip), vehicle: acetone 98 % of control | endpoint: mean survival time, dose: 100.0 mg/kg/injection, schedule: Q04DX003 (ip), vehicle: acetone 91 % of control | endpoint: mean survival time, dose: 200.0 mg/kg/injection, schedule: Q01DX009 (ip), vehicle: acetone 93 % of control | endpoint: mean survival time, dose: 200.0 mg/kg/injection, schedule: Q04DX003 (ip), vehicle: acetone 91 % of control

O=C(O)CCC(=O)Nc1cccc(Oc2ccc([N+](=O)[O-])cc2[N+](=O)[O-])c1
inactive: [15] 94 % of control | [16] 94 % of control | [17] 100 % of control

O=C(O)C(=O)O.O=C(O)C(=O)O.OO.OO.[Nb]
inactive: [7] 93 % of control | [8] 98 % of control | [9] 87 % of control

CCOc1ccc(Cl)cc1
inactive: [5] 96 % of control | [6] 98 % of control

CCOC(=O)/C=C/SCC(N)C(=O)OCC (configuration not stated)
inactive: endpoint: mean survival time, dose: 25.0 mg/kg/injection, schedule: Q04DX002 (ip), vehicle: saline 98 % of control | endpoint: mean survival time, dose: 50.0 mg/kg/injection, schedule: Q04DX002 (ip), vehicle: saline 94 % of control | [11] 101 % of control | endpoint: mean survival time, dose: 100.0 mg/kg/injection, schedule: Q04DX002 (ip), vehicle: saline 96 % of control

O=c1[nH]c(SCc2ccc(Cl)cc2)nc(-c2ccc(Cl)cc2)c1CCO
inactive: endpoint: mean survival time, dose: 100.0 mg/kg/injection, schedule: Q01DX009 (ip), vehicle: Klucel (hydroxypropylcellulose) (HPC) 87 % of control | endpoint: mean survival time, dose: 200.0 mg/kg/injection, schedule: Q01DX009 (ip), vehicle: Klucel (hydroxypropylcellulose) (HPC) 87 % of control | endpoint: mean survival time, dose: 400.0 mg/kg/injection, schedule: Q01DX009 (ip), vehicle: Klucel (hydroxypropylcellulose) (HPC) 87 % of control
